Article PMC6585789 (American Journal of Hematology, 2017)

Legend:
[1] = potentially due to induction of metabolizing enzymes; cited from earlier work
[2] = test system: subjects with newly diagnosed AML harboring FLT3 mutations; conditions: in combination with standard first line chemotherapy; cited from earlier work
[3] = Plasma pharmacokinetics of quizartinib and AC886; type: in vivo, human
[4] = test system: subjects with FLT3‐ITD–mutated AML following HCT; conditions: sorafenib maintenance following HCT; cited from earlier work

CO[C@@H]1[C@H](N(C)C(=O)c2ccccc2)C[C@H]2O[C@]1(C)n1c3ccccc3c3c4c(c5c6ccccc6n2c5c31)C(=O)NC4 [midostaurin]
Plasma concentrations during continuous dosing [1]: decrease during continuous dosing
OS benefit [2]: significant OS benefit

CC(C)(C)c1cc(NC(=O)Nc2ccc(-c3cn4c(n3)sc3cc(OCCN5CCOCC5)ccc34)cc2)no1.Cl.Cl [quizartinib, N‐(5‐tert‐butyl‐isoxazol‐3‐yl)‐N′‐{4‐[7‐(2‐morpholin‐4‐yl‐ethoxy)imidazo[2,1‐b][1, 3]benzothiazol‐2‐yl]phenyl}urea dihydrochloride]
Plasma trough concentrations reached steady state by ([3]; daily administration): ~15 days
Mean trough concentration ([3]; from cycle 2 onward, continuous administration): > 300 ng/mL
Tmax ([3]; human, plasma, oral): 2 to 3.21 h
Increase in geometric mean AUC0–24 during multiple dosing ([3]; quizartinib, both doses): approximately 5 fold

CNC(=O)c1cc(Oc2ccc(NC(=O)Nc3ccc(Cl)c(C(F)(F)F)c3)cc2)ccn1 [sorafenib]
1‐year OS [4]: 95%
1‐year progression‐free survival (PFS) [4]: 85%
